Measured values taken from patent US20110257436A1, “PROCESS FOR THE MANUFACTURE OF EASILY DISPERSIBLE, SOLID N'-HYDROXY-N-CYCLOHEXYL-DIAZENIUM OXIDE SALTS” (BASF SE, priority 2008, published 2011).

Key:
[1] = particle size distribution analysis (volume distribution) by laser diffraction of aqueous dispersion; format: physicochemical
Text: The D10, D50 and D90 represent the median or the 10th, 50th, and the 90th percentile of the particle size distribution (volume distribution), respectively. That is, the D50 (D10/D90) is a value on the distribution such that 50% (10%/90%) of the particles have a particle size of this value or less. The volume averaged particle size distribution may be measured with an aqueous dispersion of the M^n+(HDO)n by techniques known to the skilled artisan, e.g. by laser diffraction techniques.
Furthermore, a particle size distribution analysis (volume distribution) was performed using a conventional laser diffraction apparatus (Mastersizer® 2000, Fa. Malvern Instruments). For the measurement, 1 g of Cu(HDO)2 was dispersed in 100 ml of water sample and 1 ml of a solution (1% by weight) of a nonionic surfactant (polyethylene glycole p-(1,1,3,3-tetramethylbutyl)-phenyl ether, around 9-10 ethylene oxide groups). […]

[2] = cited from earlier work
[3] = dispersion time 1 min, 1 g in 100 ml water with nonionic surfactant

Row | Structure (SMILES) | D10 value ([1]; after 10 min dispersion) | D50 ([1]; after 10 min dispersion) | D90 ([1]; after 10 min dispersion) | D10 value ([1]; after 30 min dispersion) | D50 ([1]; after 30 min dispersion) | D90 ([1]; after 30 min dispersion) | D10 value [1, 3] | D50 [1, 3] | D90 [1, 3] | solubility in water [2]
1 | [Cu+2].[O-]/N=[N+](\[O-])C1CCCCC1.[O-]/N=[N+](\[O-])C1CCCCC1 [Comparative Example, reference compound] | 2 μm | 15 μm | 79 μm | 2 μm | 12 μm | 53 μm | 3 μm | 23 μm | 306 μm | –
2 | O=NN([O-])C1CCCCC1.O=NN([O-])C1CCCCC1.[Cu+2] [Cu(HDO)2, Cu-salt of N′-hydroxy-N-cyclohexyldiazenium oxide] | 14 μm | 45 μm | 108 μm | 12 μm | 41 μm | 93 μm | 16 μm | 49 μm | 140 μm | around 30 ppm
